Patent US20160279110A1, “COMPOSITIONS AND METHODS FOR TREATING CANCER” (UNIVERSITY OF ROCHESTER, priority 2015, published 2016)

How the values were obtained:
[1] = system: UPF1; experiment: Western blot of UPF1 CP generation in Daudi B lymphoblasts; format: cell-based, human; conditions: 40 ng/mL TNF-α or 2 μg/mL doxorubicin
Description: (§1) FIG. 10b is essentially as in a, but using lysates of HEK293T cells exposed to 1 μM staurosporine. FIG. 10c is essentially as in a, but using lysates of human Daudi B lymphoblasts exposed to 40 ng/mL TNF-α or 2 μg/mL doxorubicin. FIG. 10d is essentially as in a, but using lysates of human Jurkat T cells exposed to 1 μM staurosporine. FIG. 10e is essentially as in a, but using lysates of canine MDCK cells exposed to 2 μM staurosporine. FIG. 10f is essentially as in a, but using lysates of bovine MDBK cells exposed to 2 μM staurosporine. FIG. 10g is essentially as in a, but using lysates of Chinese Hamster Ovary (CHO) cells exposed to 2 μM staurosporine. FIG. 10h is essentially as in a, but using lysates of African green monkey COS-7 cells exposed to 2 μM staurosporine or 2 μg/mL doxorubicin. At least two apoptotic inducers were used for each cell line, and at least two cell lines were tested with each apoptotic inducer.
Cells were lysed, and protein was isolated using hypotonic buffer that consists of 10 mM Tris-C1, pH 7.4, 10 mM NaCl, 2 mM EDTA, 0.5% Triton X-100, 2 mM benzamidine, 1 mM PMSF, NEM (50 μg/mL), 1× phosphatase inhibitor cocktail (Roche), and 1× protease inhibitor cocktail (Roche; Basel, Switzerland). […] Immunoreactivity was assessed using SuperSignal West Pico or Femto (Pierce Biotechnology; Waltham, Mass.). […]

[2] = system: UPF1; experiment: Western blot of UPF1 CP generation in COS-7 cells; format: cell-based, African green monkey; conditions: COS-7, 2 μM staurosporine or 2 μg/mL doxorubicin
Description: as §1
Cells were lysed, and protein was isolated using hypotonic buffer that consists of 10 mM Tris-C1, pH 7.4, 10 mM NaCl, 2 mM EDTA, 0.5% Triton X-100, 2 mM benzamidine, 1 mM PMSF, NEM (50 μg/mL), 1× phosphatase inhibitor cocktail (Roche), and 1× protease inhibitor cocktail (Roche; Basel, Switzerland). […] Immunoreactivity was assessed using SuperSignal West Pico or Femto (Pierce Biotechnology; Waltham, Mass.).

[3] = system: UPF1; experiment: Western blot of UPF1 cleavage and phosphorylation in MCF7 cells; format: cell-based, human
Description: MCF7 cells either were (top line) or were not (bottom line) pretreated with 5 μM doxorubicin for 1 h before addition of 3 μg ml^−1 actinomycin D to halt transcription. Cells were collected at the indicated times after actinomycin D addition. […] Error bars=S.E.M, n==4 independent biological quadruplicates. […] HeLa Tet-off cells were transfected with plasmids encoding human β-Gl Norm mRNA and MUP mRNA or β-Gl Ter mRNA and MUP mRNA. β-Gl Norm and β-Gl 39 Ter mRNA transcription occurs under the agency of the non-stress-responsive Tet-off promoter. Cells were either pretreated with nothing (top), 50 μM doxorubicin for 1 h (middle) or 50 μg ml^−1 puromycin for 3 h (bottom) before transcriptional shut-off with 2 μg ml^−1 doxycycline. Cell aliquots were removed at the indicated “chase” time points, and RT-qPCR was used to assess the remaining levels of β-Gl Norm and β-Gl Ter mRNAs, each after normalization to MUP mRNA.
UPF1 CP may result from cleavage of endogenous UPF1 or the transfected construct, but the use of anti-FLAG allows unambiguous assignment of UPF1-FLAG CP as derived from MYC-UPF1-FLAG. α, anti; h, hour(s). […] To serve as molecular weight standards for UPF1 CP, lysates of MCF7 cells transiently expressing a UPF1-FLAG protein encompassing the residues specified were also analyzed. […] The D37 cleavage site encompassing P4-P1 residues is boxed. […] Immunoblots are representative of at least 2 independent experiments.
Cells were lysed, and protein was isolated using hypotonic buffer that consists of 10 mM Tris-C1, pH 7.4, 10 mM NaCl, 2 mM EDTA, 0.5% Triton X-100, 2 mM benzamidine, 1 mM PMSF, NEM (50 μg/mL), 1× phosphatase inhibitor cocktail (Roche), and 1× protease inhibitor cocktail (Roche; Basel, Switzerland). After 10 minutes of incubation at 4° C., NaCl was added to 150 mM, and lysates were cleared by centrifugation. Proteins were resolved using SDS-PAGE, transferred to Hybond ECL nitrocellulose (GE), and probed using antibody that recognizes one of the following: UPF1(1-416) (1:2000^8), p-UPF1 S1116 (1:1000; Millipore 07-1016; Billerica, Mass.), p-UPF1 S1089 (1:1000; Millipore 07-1015), Calnexin (1:2000; Enzo Life Sciences ADISPA860; Farmingdale, N.Y.), UPF2 (1:200; Santa Cruz Biotechnology C18 20227; Dallas, Tex.), UPF3× and 3 (1:1000^8), MLN51 (1:1000; Bethyl Laboratories A302-471; Montgomery, Tex.), GAPDH (1:200; Santa Cruz Biotechnology 25778), CBP80 (1:1000; Bethyl Laboratories A301-793), SMG5 (1:1000; Abcam 33033; Cambridge, United Kingdom), SMG6 (1:1000; Abcam 57539), SMG7 (1:1000; Bethyl Laboratories 302-170A), SMG1 (1:1000; Cell Signaling D42D5; Danvers, Mass.), Cleaved Caspase 3 (1:1000; Cell Signaling 9664), Cleaved Caspase 9 (1:1000; Cell Signaling 7237), PARP (1:1000; Cell Signaling 9542), Cleaved PARP (1:200; Santa Cruz Biotechnology sc56196) PLC-γ1 (1:200; Santa Cruz Biotechnology 58407), α-Tubulin (1:1000; Cell Signaling 3873P), FLAG (1:5000; Sigma, clone M2 a5982), HA (1:5000; Roche, clone 3F10 12013819001), or MYC (1:1000; Cell Signaling, clone 9B110 2276). Immunoreactivity was assessed using SuperSignal West Pico or Femto (Pierce Biotechnology; Waltham, Mass.).
Biochemical changes to the key NMD factor, UPF1, that correlate with doxorubicin treatment (FIG. 1c), were examined. MCF7 cells were exposed to doxorubicin (5 μM) for varying amounts of time and cell lysates were analyzed using western blotting and an in-house generated polyclonal rabbit serum raised against the N-terminal 416 amino acids of human UPF1. […]

## COc1cccc2c1C(=O)c1c(O)c3c(c(O)c1C2=O)C[C@@](O)(C(=O)CO)C[C@@H]3O[C@H]1C[C@H](N)[C@H](O)[C@H](C)O1 [doxorubicin, Doxorubicin]
[1]
  UPF1 CP generation: led to generation of the UPF1 CP prior to maximal PARP cleavage
[2]
  UPF1 CP generation: yielded a UPF1 CP
[3]; MCF7, 5 μM doxorubicin
  time at which UPF1 phosphorylation (S1116) levels diminish: ≤ 5 h
  time at which two additional UPF1 bands of greater mobility were resolved: ≤ 5 h
[3]; MCF7, 50 μM doxorubicin
  time at which higher-mobility UPF1 species were generated: ≤ 2 h
  time of production of the PARP cleavage product: 8 h
[3]; MCF7 stably transduced with MYC-UPF1-FLAG WT, 5 μM doxorubicin 16 h
  UPF1 CP level relative to uncleaved UPF1: about one-third the level of uncleaved UPF1
